From patent US6613553B1, “Enoyl reductases and methods of use thereof” (priority 2000, dated 2003)
≈ marks a conversion by molar mass, not a printed value. Entries after “also recorded” stand apart in the source; their conditions may differ. Read-outs that look alike come from different tables or passages of the source.

Columns and labels:
[1] = biological target: FabK (Streptococcus pneumoniae, UniProt Q9FBC5); type: biochemical
Experimental: A coupled enzyme system was employed to assay FabK by combining the purified E. coli proteins required to reconstitute a cycle of fatty acid synthesis with the exception of the FabI enoyl-ACP reductase. Reaction mixtures were first incubated to generate trans-2-butenoyl-ACP and then the indicated amounts of FabK were added as described in the Example below. Products were separated by conformationally sensitive gel electrophoresis and the bands visualized and quantitated using a Phosphorimager (FIG. 2C).
Enzymatic Assays: A reaction mixture containing 100 μM ACP, 1 mM β-mercaptoethanol, 100 μM acetyl-CoA, 50 μM [2-^14C]malonyl-CoA (56 mCi/mmol), 200 μM NADPH, 200 μM NADH, and 12.5 μg/ml of each FabD, FabH, FabG, FabA and FabZ in 0.1 M sodium phosphate pH 7.0 was incubated at 37° C. for 30 min to generate the trans-2-enoyl-ACP substrate before being aliquoted into individual reaction tubes to which FabK was added to the final amount as indicated for the Figures, above. The final reaction volume was 40 μL. Reactions were then incubated for 30 min at 37° C. and were stopped by placing into an ice slurry. Gel loading buffer was added, and the entire sample was loaded onto a 13% polyacrylamide gel containing 0.5 M urea [Heath and Rock, J. Biol. Chem., 271:1833 (1996)]. […]

[2] = system: E. coli RJR108 (fabI[G93V]); experiment: triclosan MIC on LB agar plates; type: cell-based; settings: Escherichia coli
[3] = biological target: T1, FabI[G93V] mutant (Escherichia coli, UniProt P0AEK4, G93V); settings: fails to form high-affinity FabI-NAD+-triclosan ternary complex; cited from earlier work
T1 sequence (P0AEK4 1-262 G93V): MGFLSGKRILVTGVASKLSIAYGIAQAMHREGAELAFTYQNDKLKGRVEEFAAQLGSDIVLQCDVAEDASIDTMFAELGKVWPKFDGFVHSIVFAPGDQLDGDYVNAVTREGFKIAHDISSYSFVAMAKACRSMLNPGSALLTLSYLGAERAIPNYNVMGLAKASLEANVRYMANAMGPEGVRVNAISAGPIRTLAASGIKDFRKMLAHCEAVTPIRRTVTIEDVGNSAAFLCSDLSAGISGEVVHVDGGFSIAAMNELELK

[4] = system: P. aeruginosa; settings: contains both FabI and FabK; cited from earlier work
[5] = system: E. coli expressing FabL; settings: FabL cloned from B. subtilis (ygaA)
Text: However, such limited structural information alone cannot allow the identification since the overall identity of SDRs are low and the family size is large.

[6] = system: S. pneumoniae R6; experiment: triclosan MIC on brain heart infusion plates; type: cell-based; settings: Streptococcus pneumoniae
[7] = system: E. coli W3110/pfabK; experiment: triclosan MIC on LB agar plates; type: cell-based, Escherichia coli; settings: for MIC: Escherichia coli
Experimental: FabI is the only enoyl reductase in E. coli and strain RJH13 harbors a fabI(Ts) allele and fails to grow at 42° C. [Heath et al., J. Biol. Chem., 273:30316 (1998)]. […] The pfabK plasmid was then introduced into the wild-type E. coli strain W3110. […] J. Infect. Control, 24:209 (1996)].

[8] = system: E. coli W3110/pfabI; experiment: triclosan MIC on LB agar plates; type: cell-based; settings: Escherichia coli; E. coli W3110/pfabI (His-tag E. coli FabI, multi-copy plasmid)
[9] = biological target: FabI protein from P. aeruginosa (Pseudomonas aeruginosa, UniProt Q9ZFE4); settings: cited from earlier work
[10] = system: E. coli W3110/pBluescript; experiment: triclosan MIC on LB agar plates; type: cell-based; settings: Escherichia coli; E. coli W3110/pBluescript (empty vector); no growth in at least three experiments
[11] = system: B. subtilis; settings: cited from earlier work

Chain of FabI protein from P. aeruginosa (Q9ZFE4 whole entry): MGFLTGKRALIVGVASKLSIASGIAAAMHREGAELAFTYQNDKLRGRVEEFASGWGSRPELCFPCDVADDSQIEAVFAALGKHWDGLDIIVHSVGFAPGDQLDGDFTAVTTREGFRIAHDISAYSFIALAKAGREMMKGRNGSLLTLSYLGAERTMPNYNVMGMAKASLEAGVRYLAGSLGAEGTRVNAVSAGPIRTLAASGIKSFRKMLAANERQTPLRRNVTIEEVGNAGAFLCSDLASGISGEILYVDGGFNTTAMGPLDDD
Chain of FabK (Q9FBC5 entry or part of it): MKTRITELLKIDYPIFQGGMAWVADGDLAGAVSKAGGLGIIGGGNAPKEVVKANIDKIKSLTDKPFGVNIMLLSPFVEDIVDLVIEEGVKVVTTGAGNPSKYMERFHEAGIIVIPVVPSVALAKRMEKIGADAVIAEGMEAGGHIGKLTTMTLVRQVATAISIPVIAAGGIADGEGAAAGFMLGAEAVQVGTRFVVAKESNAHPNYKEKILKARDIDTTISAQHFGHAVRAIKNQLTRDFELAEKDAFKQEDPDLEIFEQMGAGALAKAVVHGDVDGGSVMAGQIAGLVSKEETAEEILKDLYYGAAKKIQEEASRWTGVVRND

Structure (SMILES): Oc1cc(Cl)ccc1Oc1ccc(Cl)cc1Cl [triclosan, 2,4,4′-Trichloro-2′-hydroxydiphenyl ether]
- inhibition of FabK activity in the in vitro assay [1]: did not inhibit
- MIC [2]: 16 µg/mL (≈ 55.3 µM)
- inhibition of FabI[G93V] mutant by triclosan [3]: still inhibited
- triclosan inhibition of P. aeruginosa [4]: completely refractory
- triclosan resistance of E. coli expressing FabL [5]: complete triclosan resistance
- MIC ([6]; R6, S. pneumoniae): ~2 µg/mL (≈ 6.91 µM)
- MIC ([6]; R6, S. pneumoniae R6, brain heart infusion plates): 2 µg/mL (≈ 6.91 µM)
- triclosan resistance of E. coli expressing fabK ([7]; E. coli with fabK expression): completely resistant; also recorded: complete triclosan resistance
- MIC ([7]; E. coli W3110/pfabK (His-tag S. pneumoniae FabK), read-out: MIC): > 2000 µg/mL
- MIC ([7]; pfabK plasmid in strain W3110, read-out: minimum inhibitory concentration (MIC)): > 2000 µg/mL
- MIC [8]: 2 µg/mL (≈ 6.91 µM)
- susceptibility of P. aeruginosa FabI to triclosan in vitro [9]: highly susceptible
- MIC [10]: 0.25 µg/mL (≈ 0.863 µM)
- MIC [11]: about 2 μg/ml
